Assay results reported in patent publication US11866450B2, “Modulators of Cystic Fibrosis Transmembrane Conductance regulator, pharmaceutical compositions, methods of treatment, and process for making the modulators” (priority 2018, dated 2024).

Biological target: CFTR-mediated chloride transport (Homo sapiens, UniProt P13569)
Format: cell-based
Conditions: enteroid cells incubated with test compound 18-24 hours, acute 10 μM forskolin and 300 nM Compound III; for Max. Activity: % of chloride transport with 3 μM Compound A, 3 μM Compound II and 300 nM acute Compound III triple combination control
Procedure: Base medium (ADF+++) consisted of Advanced DMEM/Ham's F12, 2 mM Glutamax, 10 mM HEPES, […] penicillin/streptomycin.
Intestinal enteroid maintenance medium (IEMM) consisted of ADF+++, 1× B27 supplement, 1× N2 supplement, 1.25 mM N-acetyl cysteine, 10 mM Nicotinamide, 50 ng/mL hEGF, 10 nM Gastrin, 1 μg/mL hR-spondin-1, 100 ng/mL hNoggin, TGF-b type 1 inhibitor A-83-01, 100 μg/mL Primocin, 10 μM P38 MAPK inhibitor SB202190.
Bath 1 Buffer consisted of 1 mM MgCl2, 160 mM NaCl, 4.5 mM KCl, 10 mM HEPES, 10 mM Glucose, 2 mM CaCl2).
Chloride Free Buffer consisted of 1 mM Magnesium Gluconate, 2 mM Calcium Gluconate, 4.5 mM Potassium Gluconate, 160 mM Sodium Gluconate, 10 mM HEPES, 10 mM Glucose.
Bath1 Dye Solution consisted of Bath 1 Buffer, 0.04% Pluronic F127, 20 μM Methyl Oxonol, 30 μM CaCCinh-A01, 30 μM Chicago Sky Blue.
Chloride Free Dye Solution consisted of Chloride Free Buffer, 0.04% Pluronic F127, 20 μM Methyl Oxonol, 30 μM CaCCinh-A01, 30 μM Chicago Sky Blue.
Chloride Free Dye Stimulation Solution consisted of Chloride Free Dye Solution, 10 μM forskolin, 100 μM IBMX, and 300 nM Compound III.
Human intestinal epithelial enteroid cells were obtained from the Hubrecht Institute for Developmental Biology and Stem Cell Research, Utrecht, The Netherlands and expanded in T-Flasks as previously described (Dekkers J F, Wiegerinck C L, de Jonge H R, Bronsveld I, Janssens H M, de Winter-de Groot K M, Brandsma A M, de Jong N W M, Bijvelds M J C, Scholte B J, Nieuwenhuis E E S, van den Brink S, Clevers H, van der Ent C K, Middendorp S and M Beekman J M. A functional CFTR assay using primary cystic fibrosis intestinal organoids. Nat Med. 2013 July; 19(7):939-45).
Cells were recovered in cell recovery solution, collected by centrifugation at 650 rpm for 5 min at 4° C., resuspended in TryPLE and incubated for 5 min at 37° C. Cells were then collected by centrifugation at 650 rpm for 5 min at 4° C. and resuspended in IEMM containing 10 μM ROCK inhibitor (RI) (trans-4-[(1R)-1-aminoethyl]-N-4-pyridinylcyclohexanecarboxamide). The cell suspension was passed through a 40 μm cell strainer and resuspended at 1×10^6 cells/mL in IEMM containing 10 μM RI. Cells were seeded at 5000 cells/well into multi-well plates and incubated for overnight at 37° C., 95% humidity and 5% CO2 prior to assay.
Enteroid cells were incubated with test compound in IEMM for 18-24 hours at 37° C., 95% humidity and 5% CO2. Following compound incubations, a membrane potential dye assay was employed using a FLIPR Tetra to directly measure the potency and efficacy of the test compound on CFTR-mediated chloride transport following acute addition of 10 μM forskolin and 300 nM Compound III. Briefly, cells were washed 5 times in Bath 1 Buffer. Bath 1 Dye Solution was added and the cells were incubated for 25 min at room temperature. Following dye incubation, cells were washed 3 times in Chloride Free Dye Solution. Chloride transport was initiated by addition of Chloride Free Dye Stimulation Solution and the fluorescence signal was read for 15 min. The CFTR-mediated chloride transport for each condition was determined from the AUC of the fluorescence response to acute forskolin and 300 nM Compound III stimulation. Chloride transport was then expressed as a percentage of the chloride transport following treatment with 3 μM Compound A, 3 μM Compound II and 300 nM acute Compound III triple combination control (% Activity).

CFTR-mediated chloride transport, sequence (P13569 whole entry, looked up): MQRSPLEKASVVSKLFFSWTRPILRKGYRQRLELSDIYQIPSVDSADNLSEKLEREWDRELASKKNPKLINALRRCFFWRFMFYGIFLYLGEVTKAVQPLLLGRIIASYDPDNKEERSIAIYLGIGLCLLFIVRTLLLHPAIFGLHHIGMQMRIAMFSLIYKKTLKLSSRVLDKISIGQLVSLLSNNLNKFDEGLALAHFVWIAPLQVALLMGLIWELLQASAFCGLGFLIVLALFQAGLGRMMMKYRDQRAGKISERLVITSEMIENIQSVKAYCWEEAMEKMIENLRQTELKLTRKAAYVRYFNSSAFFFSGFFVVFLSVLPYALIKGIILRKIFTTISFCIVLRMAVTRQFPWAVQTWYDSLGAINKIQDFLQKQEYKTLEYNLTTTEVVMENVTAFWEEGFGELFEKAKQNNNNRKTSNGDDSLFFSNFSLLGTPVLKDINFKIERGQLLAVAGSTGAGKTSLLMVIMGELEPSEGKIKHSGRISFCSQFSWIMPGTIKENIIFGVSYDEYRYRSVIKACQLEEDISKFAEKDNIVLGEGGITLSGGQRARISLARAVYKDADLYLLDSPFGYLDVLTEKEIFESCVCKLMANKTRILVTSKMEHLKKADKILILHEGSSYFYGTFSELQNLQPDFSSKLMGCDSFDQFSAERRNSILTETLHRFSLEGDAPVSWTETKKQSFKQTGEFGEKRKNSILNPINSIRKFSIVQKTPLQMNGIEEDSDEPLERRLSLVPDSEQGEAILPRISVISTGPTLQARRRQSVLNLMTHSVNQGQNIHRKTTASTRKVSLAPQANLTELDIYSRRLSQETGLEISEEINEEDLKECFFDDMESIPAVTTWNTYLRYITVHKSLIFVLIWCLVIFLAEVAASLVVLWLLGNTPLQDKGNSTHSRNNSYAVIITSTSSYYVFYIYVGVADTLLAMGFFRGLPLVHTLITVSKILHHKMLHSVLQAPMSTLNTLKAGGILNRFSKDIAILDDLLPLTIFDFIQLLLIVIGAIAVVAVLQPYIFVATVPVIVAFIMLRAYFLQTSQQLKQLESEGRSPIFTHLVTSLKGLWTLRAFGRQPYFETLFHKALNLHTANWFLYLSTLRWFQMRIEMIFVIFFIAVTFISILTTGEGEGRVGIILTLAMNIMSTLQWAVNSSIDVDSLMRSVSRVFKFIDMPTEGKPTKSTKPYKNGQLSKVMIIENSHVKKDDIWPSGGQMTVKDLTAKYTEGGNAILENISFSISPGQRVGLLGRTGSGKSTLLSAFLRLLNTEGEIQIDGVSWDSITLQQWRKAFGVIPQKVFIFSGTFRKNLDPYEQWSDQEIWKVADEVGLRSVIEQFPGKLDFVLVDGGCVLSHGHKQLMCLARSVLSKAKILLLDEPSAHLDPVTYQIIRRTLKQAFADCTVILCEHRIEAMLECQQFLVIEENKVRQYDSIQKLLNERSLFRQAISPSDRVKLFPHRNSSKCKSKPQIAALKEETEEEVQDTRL

Row | Structure (SMILES) | EC50 | Max. Activity
1 | CC1(C)C[C@H]2CCCNc3cccc(n3)S(=O)(=O)NC(=O)c3ccc(-n4ccc(OCC5(C(F)(F)F)CC5)n4)nc3N1C2 (single isomer, unassigned) [Compound 21, 12,12-dimethyl-8-(3-{[1-(trifluoromethyl)cyclopropyl]methoxy}-1H-pyrazol-1-yl)-2λ^6-thia-3,9,11,18,23-pentaazatetracyclo[17.3.1.111,14.05,10]tetracosa-1(23),5(10),6,8,19,21-hexaene-2,2,4-trione] | > 3000 nM | ++ (++ is 30-60%)
2 | CC1(C)C[C@H]2CCCNc3cccc(n3)S(=O)(=O)NC(=O)c3ccc(-n4ccc(OCC5(C(F)(F)F)CC5)n4)nc3N1C2 (single isomer, unassigned) [Compound 22, 12,12-dimethyl-8-(3-{[1-(trifluoromethyl)cyclopropyl]methoxy}-1H-pyrazol-1-yl)-2λ^6-thia-3,9,11,18,23-pentaazatetracyclo[17.3.1.111,14.05,10]tetracosa-1(23),5(10),6,8,19,21-hexaene-2,2,4-trione] | < 1000 nM | +++ (+++ is >60%)
3 | CC1(C)C[C@H]2CNc3cccc(n3)S(=O)(=O)NC(=O)c3ccc(-n4ccc(OCCC5(C(F)(F)F)CC5)n4)nc3N1C2 (single isomer, unassigned) [Compound 24, 6,6-dimethyl-10-(3-{2-[1-(trifluoromethyl)cyclopropyl]ethoxy}-1H-pyrazol-1-yl)-16λ^6-thia-2,7,9,15,21-pentaazatetracyclo[15.3.1.14,7.08,13]docosa-1(20),8,10,12,17(21),18-hexaene-14,16,16-trione] | > 3000 nM | + (+ is <30%)
4 | CC1(C)C[C@H]2CNc3cccc(n3)S(=O)(=O)NC(=O)c3ccc(-n4ccc(OCCC5(C(F)(F)F)CC5)n4)nc3N1C2 (single isomer, unassigned) [Compound 25, 6,6-dimethyl-10-(3-{2-[1-(trifluoromethyl)cyclopropyl]ethoxy}-1H-pyrazol-1-yl)-16λ^6-thia-2,7,9,15,21-pentaazatetracyclo[15.3.1.14,7.08,13]docosa-1(20),8,10,12,17(21),18-hexaene-14,16,16-trione] | < 1000 nM | ++ (++ is 30-60%)
5 | CC1(C)C[C@H]2CCNc3cccc(n3)S(=O)(=O)NC(=O)c3ccc(-n4ccc(OCCC5(C(F)(F)F)CC5)n4)nc3N1C2 (single isomer, unassigned) [Compound 26, 7,7-dimethyl-11-(3-{2-[1-(trifluoromethyl)cyclopropyl]ethoxy}-1H-pyrazol-1-yl)-17λ^6-thia-2,8,10,16,22-pentaazatetracyclo[16.3.1.15,8.09,14]tricosa-1(21),9,11,13,18(22),19-hexaene-15,17,17-trione] | < 1000 nM | +++ (+++ is >60%)
6 | CC1(C)C[C@H]2CCNc3cccc(n3)S(=O)(=O)NC(=O)c3ccc(-n4ccc(OCCC5(C(F)(F)F)CC5)n4)nc3N1C2 (single isomer, unassigned) [Compound 27, 7,7-dimethyl-11-(3-{2-[1-(trifluoromethyl)cyclopropyl]ethoxy}-1H-pyrazol-1-yl)-17λ^6-thia-2,8,10,16,22-pentaazatetracyclo[16.3.1.15,8.09,14]tricosa-1(21),9,11,13,18(22),19-hexaene-15,17,17-trione] | < 1000 nM | +++ (+++ is >60%)
7 | CC1(C)C[C@H]2CCCCNc3cccc(n3)S(=O)(=O)NC(=O)c3ccc(-n4ccc(OCCC5(C(F)(F)F)CC5)n4)nc3N1C2 (single isomer, unassigned) [Compound 29, 12,12-dimethyl-8-(3-{2-[1-(trifluoromethyl)cyclopropyl]ethoxy}-1H-pyrazol-1-yl)-2λ^6-thia-3,9,11,19,24-pentaazatetracyclo[18.3.1.111,14.05,10]pentacosa-1(23),5,7,9,20(24),21-hexaene-2,2,4-trione] | < 1000 nM | ++ (++ is 30-60%)
8 | CC1(C)C[C@H]2CCCCNc3cccc(n3)S(=O)(=O)NC(=O)c3ccc(-n4ccc(OCCC5(C(F)(F)F)CC5)n4)nc3N1C2 (single isomer, unassigned) [Compound 30, 12,12-dimethyl-8-(3-{2-[1-(trifluoromethyl)cyclopropyl]ethoxy}-1H-pyrazol-1-yl)-2λ^6-thia-3,9,11,19,24-pentaazatetracyclo[18.3.1.111,14.05,10]pentacosa-1(23),5,7,9,20(24),21-hexaene-2,2,4-trione] | < 1000 nM | +++ (+++ is >60%)
9 | CC1(C)C[C@H]2CCCCn3ccc(n3)S(=O)(=O)NC(=O)c3ccc(-n4ccc(OCCC5(C(F)(F)F)CC5)n4)nc3N1C2 (single isomer, unassigned) [Compound 44, 21,21-dimethyl-4-(3-{2-[1-(trifluoromethyl)cyclopropyl]ethoxy}-1H-pyrazol-1-yl)-10λ^6-thia-1,3,9,14,23-pentaazatetracyclo[17.2.1.111,14.02,7]tricosa-2,4,6,11(23),12-pentaene-8,10,10-trione] | > 3000 nM | ++ (++ is 30-60%)
10 | CC1(C)C[C@H]2CCCCn3ccc(n3)S(=O)(=O)NC(=O)c3ccc(-n4ccc(OCCC5(C(F)(F)F)CC5)n4)nc3N1C2 (single isomer, unassigned) [Compound 45, 21,21-dimethyl-4-(3-{2-[1-(trifluoromethyl)cyclopropyl]ethoxy}-1H-pyrazol-1-yl)-10λ^6-thia-1,3,9,14,23-pentaazatetracyclo[17.2.1.111,14.02,7]tricosa-2,4,6,11(23),12-pentaene-8,10,10-trione] | < 1000 nM | +++ (+++ is >60%)
11 | CC1(C)CC[C@H]2CCCCNc3cccc(n3)S(=O)(=O)NC(=O)c3ccc(-n4ccc(OCCC5(C(F)(F)F)CC5)n4)nc3N21 (single isomer, unassigned) [Compound 46, 12,12-dimethyl-8-(3-{2-[1-(trifluoromethyl)cyclopropyl]ethoxy}-1H-pyrazol-1-yl)-2λ^6-thia-3,9,11,20,25-pentaazatetracyclo[19.3.1.05,10.011,15]pentacosa-1(24),5,7,9,21(25),22-hexaene-2,2,4-trione] | > 3000 nM | + (+ is <30%)
12 | CC1(C)CC[C@H]2CCCCNc3cccc(n3)S(=O)(=O)NC(=O)c3ccc(-n4ccc(OCCC5(C(F)(F)F)CC5)n4)nc3N21 (single isomer, unassigned) [Compound 47, 12,12-dimethyl-8-(3-{2-[1-(trifluoromethyl)cyclopropyl]ethoxy}-1H-pyrazol-1-yl)-2λ^6-thia-3,9,11,20,25-pentaazatetracyclo[19.3.1.05,10.011,15]pentacosa-1(24),5,7,9,21(25),22-hexaene-2,2,4-trione] | < 1000 nM | +++ (+++ is >60%)
13 | CC1(C)C[C@H]2CCCOc3cccc(n3)S(=O)(=O)NC(=O)c3ccc(-n4ccc(OCCC5(C(F)(F)F)CC5)n4)nc3N1C2 (single isomer, unassigned) [Compound 48, 12,12-dimethyl-8-(3-{2-[1-(trifluoromethyl)cyclopropyl]ethoxy}-1H-pyrazol-1-yl)-18-oxa-2λ^6-thia-3,9,11,23-tetraazatetracyclo[17.3.1.111,14.05,10]tetracosa-1(22),5,7,9,19(23),20-hexaene-2,2,4-trione] | > 3000 nM | + (+ is <30%)
